Test results taken from US20110092462A1, “USE OF HIGH-DOSE OXAZAPHOSPHORINE DRUGS FOR TREATING IMMUNE DISORDERS” (The Johns Hopkins University, priority 2005, published 2011).
Where two headings read alike, the source gives them in different places.

Columns and labels:
[1] = system: SAA patients; details: for mortality within 6 months after treatment / patients achieving remission: 38 newly diagnosed patients
Description: Response was defined as ANC >1000/d1 and transfusion independence without growth factor support for >3 months. Relapse was defined as no longer meeting criteria for response. Development of paroxysmal nocturnal hemoglobinuria was monitored by flow cytometry.
The median age of the newly diagnosed patients was 40 (range 2-68) years.

[2] = system: patients with myasthenia gravis; details: 7 patients refractory to conventional immunosuppressive therapy
[3] = system: HLA-specific antibodies in SAA patients
[4] = system: patients with HAA
Protocol: Serology/PCR for HAV, HBV, HCV, EBV, and CMV were negative. All patients met criteria for very severe aplastic anemia pretreatment: bone marrow cellularity <25%, ANC <200 μL, platelet count <20,000/μL, absolute reticulocyte count <60,000/μL. Infection prophylaxis consisted of trimethoprim/sulfamethoxazole, G-CSF, and fluconazole.

[5] = system: patient with paraneoplastic pemphigus
[6] = system: patients with aggressive MS; details: eight patients
Protocol: Open-label trial of patients with aggressive MS were given an up-front regimen of 50 mg/kg/d for four consecutive days. Enrolled patients had aggressive MS as defined by 2 or more total gadolinium enhancing lesions on each of two pretreatment MRI scans; at least one clinical exacerbation in the last year despite being on conventional MS therapy; and sustained increase of >1.0 on the EDSS in the preceding year.
All patients developed transient severe neutropenia, an expected consequence, followed by immune reconstitution in 10-17 days.

[7] = system: patients with severe refractory autoimmune disorders
[8] = system: patient with pemphigus vulgaris
[9] = system: SAA patients; details: 10 SAA patients
[10] = system: patients with refractory autoimmune hemolytic anemia
Description: The median hemoglobin at the time of treatment was 6.7 (range; 5-10) g/dl and 8 of the 9 patients were dependent on erythrocyte transfusions.

[11] = system: previously untreated SAA patients
[12] = system: patients with moderate to severe systemic lupus erythematosus (SLE)
[13] = 50 mg/kg/d for four consecutive days
[14] = after the last dose of cyclophosphamide

For `O=P1(N(CCCl)CCCl)NCCCO1` (centres unmarked) [high-dose cyclophosphamide, cyclophosphamide], the PNH clone ([1]; 12 patients with a PNH population) was “regressing in all 12 patients”, the durable remission ([1]; 12 patients with a PNH population 0.5-40% of granulocytes, p=0.039) was “all 12” and the patients in remission ([1]; 17 patients who failed immunosuppressive therapy) was “nine”. For the same molecule, the “additional patient died from bacterial sepsis” value ([1]; 18 months after treatment) was 1 patient, the “mortality within 6 months after treatment” value [1] was 10.5% and the patients achieving remission ([1]; 95% CI 58-85%) was 74%. For the same molecule, the “mortality within 6 months after treatment” value ([1]; all with vSAA) was 4 patients, the patients achieving remission ([1]; most complete) was 28 patients and the patients in remission ([1]; SAA (not very severe) subgroup of 23) was 20 patients. For the same molecule, the “patients surviving in remission” value ([1]; eight patients with a severe infection at beginning of treatment) was 5 patients, the “median time to ANC of 500” value ([1]; newly diagnosed patients) was 50 days and the “median time to last platelet transfusion” value ([1]; newly diagnosed patients) was 99 days. The “median time to last red cell transfusion” value ([1]; newly diagnosed patients) was 181 days, the patients relapsed ([1]; newly diagnosed series) was “Two patients” and the “progression to PNH or MDS” value ([1]; newly diagnosed series) was “No patient”. For the same molecule, the actuarial survival ([1]; newly diagnosed, 95% CI 72-95%) was 86%, the patients surviving ([1]; newly diagnosed, median follow-up 41 (range 6-111) months) was 33/38 and the patients alive ([1]; patients who failed immunosuppressive therapy) was “Ten of the 17”. For the same molecule, the patients in remission ([1]; vSAA subgroup of 15) was 10 patients, the “markedly improved, and returned to full activity” value [2] was “All of these patients” and the “marked reduction in anti-HLA antibody titer” value ([3]; after treatment) was “All four responders”. For the same molecule, the “complete remission of the SAA” value ([3]; five patients with HLA-specific antibodies) was “four of these five”, the “anti-HLA antibody completely eradicated” value ([3]; of four responders) was “three” and the “duration of remission after treatment without further immune suppression” value ([4]; 4 patients with hematopoietic responses) was “up to 6 years”. The “autoimmune hepatitis (AIH) status” value ([4]; Patient 2) was “remains in remission”, the hematologic response ([4]; Patient 5, proceeded to unrelated BMT after 5 months) was “no hematopoietic response” and the hematopoietic recovery ([4]; five patients, 50 mg/kg/day IV×4 days plus mesna) was “Four patients”. For the same molecule, the “durable remissions in hepatitis-associated aplastic anemia” value ([4]; follow-up 1-6 years) was 4 of 5, the “median time to ANC >500/μL” value ([4]; range 44-369) was 51 days and the “median time to transfusion independence for platelets” value ([4]; range 48-679) was 160 days. For the same molecule, the “median time to transfusion independence for erythrocytes” value ([4]; range 57-679) was 109 days, the “death from treatment failure” value ([4]; series of 5 patients) was “one death” and the “pathogenic autoantibodies specific for the disease” value ([5]; after treatment) was “undetectable”. For the same molecule, the remission ([5]; in vivo) was “durable complete remissions”, the “need for blood products” value ([5]; one patient) was “did not require blood products” and the “recovery to a neutrophil count of greater than 500 per μL” value ([5]; one patient) was at most 15 days. The brain atrophy [6] was “slowed in several patients”, the “clinical exacerbation following treatment” value [6] was “No patient” and the “improvement in the MSFC following treatment” value [6] was “most patients”. For the same molecule, the “reduction in EDSS following treatment” value [6] was “most patients”, the “reduction or elimination of new and enhancing lesions on the MRI” value [6] was “All patients” and the “time to immune reconstitution after neutropenia” value [6, 13] was 10 to 17 days. For the same molecule, the transient severe neutropenia [6, 13] was “All patients”, the “unexpected grade 3 or 4 adverse event” value [6, 13] was “no patients” and the “median time to a neutrophil count of 500 per μL” value [7, 14] was 17 days. The “median time to platelet transfusion independence” value [7, 14] was 16 days, the complete remission ([7]; eight patients) was “five” and the marked clinical improvement ([7]; eight patients) was “Seven patients”. The partial remission ([7]; eight patients) was 2, the “pathogenic autoantibodies specific for the disease” value ([8]; after treatment) was “undetectable” and the remission ([8]; in vivo) was “durable complete remissions”. For the same molecule, the “began to recover neutrophils” value ([8]; one patient) was at most 9 days, the “need for red cell transfusions” value ([8]; one patient) was “did not require red cell transfusions” and the platelet transfusions received ([8]; one patient) was 2. For the same molecule, the “complete remission (normocellular bone marrow, hemoglobin >13.0 g/dl, neutrophil count >[…]10^9/L, platelet count greater than 125×10^9/L)” value [9] was “seven of ten”, the “complete remission (normal untransfused hemoglobin for age and sex)” value ([10]; 9 patients) was 6 patients and the “median time to a neutrophil count of 500 per μL” value ([10]; 9 patients) was 16 days. The “median time to platelet transfusion independence” value ([10]; 9 patients) was 15 days, the “partial remission (hemoglobin >10.0 g/dl without support of transfusions)” value ([10]; 9 patients) was 3 patients and the “responded and became transfusion independent” value ([10]; 9 patients) was “All patients”. For the same molecule, the “patients able to discontinue steroids” value ([10]; in vivo) was 7 of the 9, the relapses ([10]; median follow-up of 15 (range 4-29) months) was “no relapses” and the “median time to a neutrophil count of 500 μL” value ([11]; 19 patients) was 49 days. The “probability of achieving treatment-free remission” value ([11]; 19 patients, 95% CI 51-91%) was 73%, the probability of survival ([11]; at 24 months, 19 patients, 95% CI 59-95%) was 84% and the “relapse or secondary clonal disorders” value ([11]; responding patients) was “No responding patients”. For the same molecule, the “deaths or fungal infections” value ([12]; 14 patients) was “no deaths or fungal infections”, the durable complete responses ([12]; 14 patients) was 5 and the “median time to a neutrophil count of 500 μl” value ([12]; after the last dose, range 11 to 22 days, 14 patients) was 14 days. For the same molecule, the “improvement in Physicians Global Assessment, mean difference” value ([12]; p<0.0001) was 1.3, the “improvement in prednisone dosage, mean difference” value ([12]; p=0.01) was 12.8 mg and the “improvement in systemic lupus erythematosus disease activity index, mean difference” value ([12]; p=0.042) was 3.5. For the same molecule, the “median day to last platelet transfusion” value ([12]; range 0 to 23) was 16 days and the “median transfusions of packed red blood cells required” value ([12]; range 2 to 5) was 2 transfusions.
